The source of these data is US20250144224A1, “ABL INHIBITORS AND USES THEREOF” (The Regents of the University of California, priority 2021, published 2025).

Data set [1] relates to K562 cells (CRISPR base-edited Bcr-Abl T315I). Description: CellTiter-Glo cell viability, K562 Bcr-Abl T315I. To be noted: Homo sapiens, K562, 72 h, read-out: EC50 (nM) CTG K562 T315I. (ATP-based viability assays read luminescence as a measure of living cells.)
Protocol: (§1) Compounds were tested for ability to inhibit cell growth. K562 cells (wild-type or CRISPR base-edited Bcr-Abl T315I) were plated at 1000 cells/well in 96-well plates and treated with the indicated compounds at the indicated concentrations for three days in triplicate, then tested for cell viability by the CellTiter-Glo 2.0 assay (Promega).
(§2) Compounds were tested for ability to inhibit cell growth. K562 cells (wild-type or CRISPR base-edited Bcr-Abl T315I) were plated at 1000 cells/well in 96-well plates and treated with the indicated compounds at the indicated concentrations for three days in triplicate, then tested for cell viability by the CellTiter-Glo 2.0 assay (Promega). […] Compounds were tested for ability to inhibit cell growth. K562 cells (wild-type or CRISPR base-edited Bcr-Abl T315I) were plated at 1000 cells/well in 96-well plates and treated with the indicated compounds at the indicated concentrations for three days in triplicate, then tested for cell viability by the CellTiter-Glo 2.0 assay (Promega).
(§3) Cells were treated with the indicated concentrations of compound in 9-point 3-fold dilution series (100 μL final volume per well) and incubated at 37° C. for 72 h. Cell viability was assessed by CellTiter-Glo (CTG) Luminescent Cell Viability Assay (Promega). Cells were equilibrated to room temperature before the addition of diluted (1:4 CTG reagent:PBS) CTG reagent (100 μL per well). Plates were agitated on an orbital shaker and luminescence signal was measured on a SpectraMax M5 (Molecular Devices) or Spark (Tecan) plate reader. Repeated measurements of luminescence were performed as technical replicates to determine incubation times optimal for signal-to-noise. Luminescence measurements were normalized to DMSO-treated values to determine relative cell viability.
Another data set concerns K562 cells (wild-type). Description: CellTiter-Glo cell viability, K562 wild-type. The note with it: Homo sapiens, K562, 72 h, read-out: EC50 (nM) CTG K562 wt.
For a further data set, the target named is Abl wt (Homo sapiens, UniProt P00519). Nature of the data set: SelectScreen Z'LYTE kinase assay, Abl wt.
A further data set addresses Abl_T315I (Homo sapiens, UniProt P00519, T315I). Nature of the data set: SelectScreen Z'LYTE kinase assay, Abl T315I.
Data set [2] is described as follows: Parallel artificial membrane permeability assay (PAMPA). Format: in vitro ADME. On the procedure: PAMPA was performed by Quintara Discovery using the BioCoat Pre-coated PAMPA Plate System (Corning) as described previously (15) and based on manufacturer's recommendations. All compounds were assessed at 100 μM in PBS. Compound concentrations in donor and acceptor compartments were quantified using liquid chromatography-mass spectrometry (LC-MS) 5 h following compound addition into the donor compartment.

Data set [3] deals with K562 CRISPRi or CRISPRa cells expressing sgRNAs targeting IFITM1-3. Description: Internally normalized cellular fluorescence uptake assay. To be noted: 24 h; TAMRA-N3 10 nM, TAMRA-PEG8-N3 1 μM, RapaTAMRA 1 nM.
Protocol: FIGS. 2B-2C: Measurement of fluorescent molecule uptake in K562 CRISPRi (FIG. 2B) or CRISPRa (FIG. 2C) cells expressing sgRNAs (sgRNA+). Cells were incubated with TAMRA-N3 (10 nM), TAMRA-PEG8-N3 (1 μM), or RapaTAMRA (1 nM) for 24 h. Uptake modulation by sgRNAs was quantified by internal normalization to non-transduced cells (sgRNA−) present within the mixture (i.e., relative cellular uptake). Data representative of three biological replicates. FIG. 2D: Changes in uptake of fluorescent molecules by sgRNAs targeting IFITM1-3 as in (FIGS. 2B-2C). […] Data represent means of three biological replicates.
K562 CRISPRi or CRISPRa cells stably expressing sgRNAs marked with BFP mixed at a 1:1 ratio with non-transduced (sgRNA−) cells (20,000 cells in 180 μL per well) were seeded into 96-well round bottom plates and incubated at 37° C. overnight. Cells were treated with fluorescent compounds at the concentrations indicated (200 μL final volume per well) and incubated at 37° C. for 24 h. Cells were pelleted at 500 g, washed twice with ice-cold PBS supplemented with 1% bovine serum albumin (Millipore) and 0.1% NaN3, and resuspended in the same before assessment by flow cytometry on an Attune NxT (Thermo Fisher Scientific). […] Relative cellular uptake was determined by dividing the median TAMRA fluorescence intensity of BFP+ populations by that of BFP—populations (FIG. 2B). […]

Protocol for Abl wt: (§4) Biochemical inhibition of BCR-ABL (wild type) and BCR-ABL (T315I). […] Biochemical experiments performed by Thermo SelectScreen, under conditions which mask the effects of allosteric inhibition. Conditions contain 0.01% BRIJ-35, a common non-ionic detergent added to kinase assay buffers.
(§5) Compounds were tested for ability to inhibit wild-type and T315I Abl kinases in vitro at the indicated concentrations by the SelectScreen Z'LYTE assay (Thermo Scientific).
Protocol for Abl_T315I: as §4, §5
Protocol for K562 cells (wild-type): as §1, §2, §3

For orientation: EC50 means the midpoint of the concentration-response curve. As to `Cc1nc(Nc2ncc(C(=O)Nc3c(C)cccc3Cl)s2)cc(N2CCN(C(=O)CCOCCOCCOCCOCCOCCOCCOCCOCCOCCOCCNC(=O)C3CCN(c4ncc(C(=O)Nc5ccc(OC(F)(F)Cl)cc5)cc4-c4ccn[nH]4)CC3)CC2)n1` [DasatiLink-2], the EC50 in data set [1] was > 300 nM; with K562 cells (wild-type), 2.49 nM.

For the molecule `Cc1nc(Nc2ncc(C(=O)Nc3c(C)cccc3Cl)s2)cc(N2CCN(C(=O)CCOCCOCCOCCOCCOCCOCCOCCOCCNC(=O)C3CCN(c4ncc(C(=O)Nc5ccc(OC(F)(F)Cl)cc5)cc4-c4ccn[nH]4)CC3)CC2)n1` [DasatiLink-3], the EC50 in data set [1] was > 300 nM; in the data set with K562 cells (wild-type), 2.94 nM; at Abl wt, 1.04 nM.

Take `Cc1nc(Nc2ncc(C(=O)Nc3c(C)cccc3Cl)s2)cc(N2CCN(C(=O)CCOCCOCCOCCOCCOCCOCCNC(=O)C3CCN(c4ncc(C(=O)Nc5ccc(OC(F)(F)Cl)cc5)cc4-c4ccn[nH]4)CC3)CC2)n1` [DasatiLink-4]: the EC50 in data set [1] is > 300 nM; in the data set with K562 cells (wild-type), 2.62 nM; at Abl wt, 1.81 nM.

As for `Cc1ccc(C(=O)Nc2ccc(CN3CCN(C(=O)CCOCCOCCOCCOCCOCCOCCOCCOCCOCCOCCOCCOCCNC(=O)C4CCN(c5ncc(C(=O)Nc6ccc(OC(F)(F)Cl)cc6)cc5-c5ccn[nH]5)CC4)CC3)c(C(F)(F)F)c2)cc1C#Cc1cnc2cccnn12` [PonatiLink-1-12], the EC50 is 43.7 nM in data set [1], 2.76 nM in the data set on K562 cells (wild-type), 319 nM on Abl wt and 3580 nM at Abl_T315I.

With `Cc1ccc(C(=O)Nc2ccc(CN3CCN(C(=O)CCOCCOCCOCCOCCOCCOCCOCCOCCOCCOCCOCCOCCOCCOCCOCCOCCNC(=O)C4CCN(c5ncc(C(=O)Nc6ccc(OC(F)(F)Cl)cc6)cc5-c5ccn[nH]5)CC4)CC3)c(C(F)(F)F)c2)cc1C#Cc1cnc2cccnn12` [PonatiLink-1-16], the EC50 in data set [1] came to 28.7 nM; in the data set with K562 cells (wild-type) it was 1.4 nM; at Abl wt it was 82 nM; at Abl_T315I, 229 nM.

For the molecule `Cc1ccc(C(=O)Nc2ccc(CN3CCN(C(=O)CCOCCOCCOCCOCCOCCOCCOCCOCCOCCOCCOCCOCCOCCOCCOCCOCCOCCOCCOCCOCCNC(=O)C4CCN(c5ncc(C(=O)Nc6ccc(OC(F)(F)Cl)cc6)cc5-c5ccn[nH]5)CC4)CC3)c(C(F)(F)F)c2)cc1C#Cc1cnc2cccnn12` [PonatiLink-1-20], the EC50 was 26.2 nM in data set [1], 1.02 nM in the data set with K562 cells (wild-type), 10.8 nM at Abl wt and 215 nM on Abl_T315I.

Consider `Cc1ccc(C(=O)Nc2ccc(CN3CCN(C(=O)CCOCCOCCOCCOCCOCCOCCOCCOCCOCCOCCOCCOCCOCCOCCOCCOCCOCCOCCOCCOCCOCCOCCOCCOCCNC(=O)C4CCN(c5ncc(C(=O)Nc6ccc(OC(F)(F)Cl)cc6)cc5-c5ccn[nH]5)CC4)CC3)c(C(F)(F)F)c2)cc1C#Cc1cnc2cccnn12` [PonatiLink-1-24], for which the values for the EC50 (in data set [1]; with K562 cells (wild-type)) were 26.3 nM and 0.87 nM, respectively.

Turning to `Cc1ccc(C(=O)Nc2ccc(CN3CCN(C(=O)CCOCCOCCOCCOCCOCCOCCOCCOCCOCCOCCOCCOCCOCCOCCOCCOCCOCCOCCOCCOCCOCCOCCOCCOCCOCCOCCOCCOCCNC(=O)C4CCN(c5ncc(C(=O)Nc6ccc(OC(F)(F)Cl)cc6)cc5-c5ccn[nH]5)CC4)CC3)c(C(F)(F)F)c2)cc1C#Cc1cnc2cccnn12` [PonatiLink-1-28], the EC50 in data set [1] was determined as 49.1 nM; in the data set with K562 cells (wild-type) it was 1.82 nM.

Turning to `Cc1ccc(C(=O)Nc2ccc(CN3CCN(C)CC3)c(C(F)(F)F)c2)cc1C#Cc1cnc2cc(OCCOCCOCCOCCOCCOCCOCCNC(=O)CCOCCOCCOCCOCCNC(=O)C3CCN(c4ncc(C(=O)Nc5ccc(OC(F)(F)Cl)cc5)cc4-c4ccn[nH]4)CC3)ccn12` [PonatiLink-2-7-4], the EC50 in data set [1] amounted to 1.3 nM; in the data set on K562 cells (wild-type), 0.39 nM.

Consider `Cc1ccc(C(=O)Nc2ccc(CN3CCN(C)CC3)c(C(F)(F)F)c2)cc1C#Cc1cnc2cc(OCCOCCOCCOCCOCCOCCOCCNC(=O)CCOCCOCCOCCOCCOCCOCCNC(=O)C3CCN(c4ncc(C(=O)Nc5ccc(OC(F)(F)Cl)cc5)cc4-c4ccn[nH]4)CC3)ccn12` [PonatiLink-2-7-6], for which the EC50 in data set [1] amounted to 1.06 nM; in the data set with K562 cells (wild-type) it was 0.38 nM.

Consider `Cc1ccc(C(=O)Nc2ccc(CN3CCN(C)CC3)c(C(F)(F)F)c2)cc1C#Cc1cnc2cc(OCCOCCOCCOCCOCCOCCOCCNC(=O)CCOCCOCCOCCOCCOCCOCCOCCOCCNC(=O)C3CCN(c4ncc(C(=O)Nc5ccc(OC(F)(F)Cl)cc5)cc4-c4ccn[nH]4)CC3)ccn12` [PonatiLink-2-7-8], for which the EC50 in data set [1] amounted to 0.94 nM; with K562 cells (wild-type), 0.36 nM.

Regarding `Cc1ccc(C(=O)Nc2ccc(CN3CCN(C)CC3)c(C(F)(F)F)c2)cc1C#Cc1cnc2cc(OCCOCCOCCOCCOCCOCCOCCNC(=O)CCOCCOCCOCCOCCOCCOCCOCCOCCOCCOCCNC(=O)C3CCN(c4ncc(C(=O)Nc5ccc(OC(F)(F)Cl)cc5)cc4-c4ccn[nH]4)CC3)ccn12` [PonatiLink-2-7-10], the results for the EC50 (in data set [1]; with K562 cells (wild-type)) were 0.94 nM and 0.43 nM, respectively.

Take `CO[C@@H]1C[C@@H]2CC[C@@H](C)[C@@](O)(O2)C(=O)C(=O)N2CCCC[C@@H]2C(=O)O[C@H]([C@H](C)C[C@H]2CC[C@H](OCCOCc3cn(CCOCCOCCOCCOCCOCCOCCOCCOCCC(=O)NCCCCn4nc(-c5ccc6oc(N)nc6c5)c5c(N)ncnc54)nn3)[C@H](OC)C2)CC(=O)[C@H](C)/C=C(\C)[C@H](O)[C@@H](OC)C(=O)[C@H](C)C[C@H](C)/C=C/C=C/C=C/1C` [RapaLink-1]: in data set [2] (PAMPA), the “artificial membrane permeability by PAMPA” value is given as “no measurable permeability”.

For `CO[C@H]1C[C@@H]2CC[C@@H](C)[C@@](O)(O2)C(=O)C(=O)N2CCCC[C@H]2C(=O)O[C@H]([C@H](C)C[C@@H]2CC[C@@H](OCCOCc3cn(CCOCCOCCOCCOCCOCCOCCOCCOCCNC(=O)c4ccc(C(=O)[O-])c(-c5c6ccc(=[N+](C)C)cc-6oc6cc(N(C)C)ccc56)c4)nn3)[C@H](OC)C2)CC(=O)[C@H](C)/C=C(\C)[C@@H](O)[C@@H](OC)C(=O)[C@H](C)C[C@H](C)/C=C/C=C/C=C/1C` [RapaTAMRA], the “change in relative cellular uptake with IFITM1-3 knockdown / overexpression” value in data set [3] is “decreased uptake upon knockdown of IFITM1-3 and increased uptake upon overexpression”.

On to `O=C(Nc1ccc(OC(F)(F)Cl)cc1)c1cnc(N2CC[C@@H](O)C2)c(-c2ccn[nH]2)c1` [asciminib, reference compound], for which the “artificial membrane permeability by PAMPA” value in data set [2] (100 μM in PBS, 5 h, LC-MS) is listed as “readily permeable”.

Consider `Cc1nc(Nc2ncc(C(=O)Nc3c(C)cccc3Cl)s2)cc(N2CCN(CCO)CC2)n1` [dasatinib], for which the “artificial membrane permeability by PAMPA” value in data set [2] (100 μM in PBS, 5 h, LC-MS) was “readily permeable”.

For the molecule `CO[C@H]1C[C@@H]2CC[C@@H](C)[C@@](O)(O2)C(=O)C(=O)N2CCCC[C@H]2C(=O)O[C@H]([C@H](C)C[C@@H]2CC[C@@H](O)[C@H](OC)C2)CC(=O)[C@H](C)/C=C(\C)[C@@H](O)[C@@H](OC)C(=O)[C@H](C)C[C@H](C)/C=C/C=C/C=C/1C` [rapamycin], in data set [2] (100 μM in PBS, 5 h, LC-MS), the “artificial membrane permeability by PAMPA” value is listed as “readily permeable”.

With `CC(C)n1nc(-c2ccc3oc(N)nc3c2)c2c(N)ncnc21` [sapanisertib], the “artificial membrane permeability by PAMPA” value in data set [2] (100 μM in PBS, 5 h, LC-MS) is “readily permeable”.
